Measured values reported in patent US20250214942A1, “INHIBITORS OF RECEPTOR INTERACTING PROTEIN KINASE I FOR THE TREATMENT OF DISEASE” (Board of Regents, The University of Texas System, priority 2019, published 2025).
Where two headings read alike, the source gives them in different places.

How the values were obtained:
RIPK1 = RIPK1 (Homo sapiens (Human), UniProt Q13546); assay: ADP-Glo kinase assay (RIPK1 activity, conversion of ATP to ADP); type: biochemical; details: for IC50: 5 nM RIPK1, 50 μM ATP, 6 h reaction, read-out: RIPK1 Enzyme Avg IC50
Procedure, shortened: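 RIPK1 (5 nM final) was preincubated 10 min at rt with 1:3-diluted compounds in HEPES pH 7.5/MgCl2/DTT/BSA/CHAPS buffer. ATP (50 μM final) was then added for 6 h, and ADP formed was read by ADP-Glo luminescence. IC50 values came from four-parameter logistic fitting.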

[1] = test system: human monocytic cell line U937; assay: Human U937 cellular necroptosis assay (TNFalpha + z-VAD-FMK, Cell Titer-Glo viability); type: cell-based; details: U937 cells, 25 ng/mL human TNFalpha + 25 μM z-VAD-FMK, read-out: hU937 Avg IC50
Procedure, shortened: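 Readout is CellTiter-Glo 2.0 luminescence after 22 h at 37° C with compound, in cells triggered by human TNFalpha (25 ng/mL) and z-VAD-FMK (25 μM) in phenol red-free RPMI/10% FBS. Values are run-averaged IC50s from a four-parameter logistic curve.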

Chain of RIPK1 (Q13546 1-327): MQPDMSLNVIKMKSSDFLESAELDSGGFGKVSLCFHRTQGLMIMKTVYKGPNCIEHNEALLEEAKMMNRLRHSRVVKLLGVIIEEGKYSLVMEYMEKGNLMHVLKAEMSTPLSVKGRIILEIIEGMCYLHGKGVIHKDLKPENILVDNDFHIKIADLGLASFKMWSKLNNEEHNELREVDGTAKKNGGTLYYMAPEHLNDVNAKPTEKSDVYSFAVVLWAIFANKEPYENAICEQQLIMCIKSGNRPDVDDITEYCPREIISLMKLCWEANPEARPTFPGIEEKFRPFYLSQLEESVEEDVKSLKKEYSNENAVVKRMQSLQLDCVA

## N#Cc1cccc(C2CC=NN2C(=O)C23CC(Cn4cc(C#N)cn4)(C2)C3)c1 (stereo not drawn) [Example 137, 1-((3-(5-(3-cyanophenyl)-4,5-dihydro-1H-pyrazole-1-carbonyl)bicyclo[1.1.1]-pentan-1-yl)methyl)-1H-pyrazole-4-carbonitrile]
RIPK1
  IC50: 379 nM
[1]; Homo sapiens, U-937, 22 h
  IC50: 2690 nM

## N#Cc1cncc(C2CC=NN2C(=O)C23CC(Cn4ncc5cc(C#N)ccc54)(C2)C3)c1 (stereo not drawn) [Example 173, 1-((3-(5-(5-cyanopyridin-3-yl)-4,5-dihydro-1H-pyrazole-1-carbonyl)bicyclo[1.1.1]-pentan-1-yl)methyl)-1H-indazole-5-carbonitrile]
RIPK1
  IC50: 9.1 nM
[1]; Homo sapiens, U-937, 22 h
  IC50: 53 nM

## N#Cc1cncc(C2CC=NN2C(=O)C23CC(Cn4cc(C#N)cn4)(C2)C3)c1 (stereo not drawn) [Example 168, 5-(1-(3-((4-cyano-1H-pyrazol-1-yl)methyl)-bicyclo[1.1.1]pentane-1-carbonyl)-4,5-dihydro-1H-pyrazol-5-yl)nicotinonitrile]
RIPK1
  IC50: 865 nM
[1]; Homo sapiens, U-937, 22 h
  IC50: 6190 nM

## N#Cc1cccc2cnn(CC34CC(C(=O)N5N=CCC5c5cc(F)cc(F)c5)(C3)C4)c12 (stereo not drawn) [Example 143, 1-((3-(5-(3,5-difluorophenyl)-4,5-dihydro-1H-pyrazole-1-carbonyl)bicyclo[1.1.1]-pentan-1-yl)methyl)-1H-indazole-7-carbonitrile]
RIPK1
  IC50: 122 nM
[1]; Homo sapiens, U-937, 22 h
  IC50: 495 nM

## N#Cc1cc2cnn(CC34CC(C(=O)N5N=CCC5c5cc(F)cc(F)c5)(C3)C4)c2cn1 (stereo not drawn) [Example 213, 1-((3-(5-(3,5-difluorophenyl)-4,5-dihydro-1H-pyrazole-1-carbonyl)bicyclo[1.1.1]pentan-1-yl)methyl)-1H-pyrazolo[3,4-c]pyridine-5-carbonitrile]
RIPK1
  IC50: 33 nM
[1]; Homo sapiens, U-937, 22 h
  IC50: 63 nM

## Cc1ccc(C2CC=NN2C(=O)C23CC(Cn4ncc5cc(C#N)ccc54)(C2)C3)nc1 (stereo not drawn) [Example 174, 1-((3-(5-(5-methylpyridin-2-yl)-4,5-dihydro-1H-pyrazole-1-carbonyl)bicyclo[1.1.1]-pentan-1-yl)methyl)-1H-indazole-5-carbonitrile]
RIPK1
  IC50: 48 nM
[1]; Homo sapiens, U-937, 22 h
  IC50: 63 nM

## O=C(N1CC(F)CC1c1cccc(F)c1)C12CC(COc3cc(Br)ncn3)(C1)C2 (stereo not drawn) [Example 28, (3-(((6-Bromopyrimidin-4-yl)oxy)methyl)bicyclo[1.1.1]pentan-1-yl)(4-fluoro-2-(3-fluorophenyl)pyrrolidin-1-yl)methanone]
RIPK1
  IC50: 32 nM
[1]; Homo sapiens, U-937, 22 h
  IC50: 193 nM

## O=C(N1N=CCC1c1cc(F)cc(F)c1)C12CC(Cn3ncc4cccc(Cl)c43)(C1)C2 (stereo not drawn) [Example 69, (3-((7-chloro-1H-indazol-1-yl)methyl)bicyclo[1.1.1]-pentan-1-yl)(5-(3,5-difluoro-phenyl)-4,5-dihydro-1H-pyrazol-1-yl)methanone]
RIPK1
  IC50: 22 nM
[1]; Homo sapiens, U-937, 22 h
  IC50: 44 nM

## Cc1cnc(C2CC=NN2C(=O)C23CC(Cn4ncc5ncccc54)(C2)C3)cn1 (stereo not drawn) [Example 151, (3-((1H-pyrazolo[4,3-b]-pyridin-1-yl)methyl)bicyclo-[1.1.1]pentan-1-yl)(5-(5-methylpyrazin-2-yl)-4,5-dihydro-1H-pyrazol-1-yl)methanone]
RIPK1
  IC50: 242 nM
[1]; Homo sapiens, U-937, 22 h
  IC50: 1190 nM

## N#Cc1ccc2c(cnn2CC23CC(C(=O)N4CCC4c4cccc(F)c4)(C2)C3)c1 (stereo not drawn) [Example 252, 1-((3-(2-(3-fluorophenyl)-azetidine-1-carbonyl)bicyclo-[1.1.1]pentan-1-yl)methyl)-1H-indazole-5-carbonitrile]
RIPK1
  IC50: 43 nM
[1]; Homo sapiens, U-937, 22 h
  IC50: 436 nM

## COc1ccc2cnn(CC34CC(C(=O)N5N=CCC5c5cc(F)cc(F)c5)(C3)C4)c2c1 (stereo not drawn) [Example 73, (5-(3,5-difluorophenyl)-4,5-dihydro-1H-pyrazol-1-yl)(3-((6-methoxy-1H-indazol-1-yl)methyl)bicyclo[1.1.1]-pentan-1-yl)methanone]
RIPK1
  IC50: 111 nM
[1]; Homo sapiens, U-937, 22 h
  IC50: 527 nM

## Cc1cnn(CC23CC(C(=O)N4N=CCC4c4cc(F)cc(F)c4)(C2)C3)c1C#N (stereo not drawn) [Example 156, 1-((3-(5-(3,5-difluorophenyl)-4,5-dihydro-1H-pyrazole-1-carbonyl)bicyclo[1.1.1]-pentan-1-yl)methyl)-4-methyl-1H-pyrazole-5-carbonitrile]
RIPK1
  IC50: 38 nM
[1]; Homo sapiens, U-937, 22 h
  IC50: 159 nM

## COc1ccnc(OCC23CC(C(=O)N4N=CCC4c4cc(F)cc(F)c4)(C2)C3)n1 (stereo not drawn) [Example 327, (5-(3,5-difluorophenyl)-4,5-dihydro-1H-pyrazol-1-yl)(3-(((4-methoxypyrimidin-2-yl)oxy)methyl)bicyclo[1.1.1]-pentan-1-yl)methanone]
RIPK1
  IC50: 75 nM
[1]; Homo sapiens, U-937, 22 h
  IC50: 381 nM

## N#Cc1ccc2c(cnn2CC23CC(C(=O)N4CCC4c4ccccc4F)(C2)C3)c1 (stereo not drawn) [Example 248, 1-((3-(2-(2-fluorophenyl)-azetidine-1-carbonyl)bicyclo-[1.1.1]pentan-1-yl)methyl)-1H-indazole-5-carbonitrile]
RIPK1
  IC50: 23 nM
[1]; Homo sapiens, U-937, 22 h
  IC50: 186 nM

## O=C(N1N=CCC1c1cc(F)cc(F)c1)C12CC(C(F)c3cccc(Cl)c3)(C1)C2 (stereo not drawn) [Example 42, (3-((3-chlorophenyl)fluoromethyl)bicyclo[1.1.1]pentan-1-yl)(5-(3,5-difluorophenyl)-4,5-dihydro-1H-pyrazol-1-yl)methanone]
RIPK1
  IC50: 31 nM
[1]; Homo sapiens, U-937, 22 h
  IC50: 51 nM

## O=C(N1N=CCC1c1cncc(F)c1)C12CC(Cn3ncc4c(F)cccc43)(C1)C2 (stereo not drawn) [Example 14, (3-((4-Fluoro-1H-indazol-1-yl)methyl)bicyclo[1.1.1]pentan-1-yl)(5-(5-fluoropyridin-3-yl)-4,5-dihydro-1H-pyrazol-1-yl)methanone]
RIPK1
  IC50: 12 nM
[1]; Homo sapiens, U-937, 22 h
  IC50: 24 nM

## O=C(N1N=CCC1c1cc(F)cc(F)c1)C12CC(Cn3ncc4ncccc43)(C1)C2 (stereo not drawn) [Example 65, (3-((1H-pyrazolo[4,3-b]-pyridin-1-yl)methyl)bicyclo-[1.1.1]pentan-1-yl)(5-(3,5-difluorophenyl)-4,5-dihydro-1H-pyrazol-1-yl)methanone]
RIPK1
  IC50: 11 nM
[1]; 22 h
  IC50: 44 nM

## O=C(N1N=CCC1c1cc(F)cc(F)c1)C12CC(Cn3cc4ccncc4n3)(C1)C2 (stereo not drawn) [Example 88, (3-((2H-pyrazolo[3,4-c]-pyridin-2-yl)methyl)bicyclo-[1.1.1]pentan-1-yl)(5-(3,5-difluorophenyl)-4,5-dihydro-1H-pyrazol-1-yl)methanone]
RIPK1
  IC50: 24 nM
[1]; Homo sapiens, U-937, 22 h
  IC50: 94 nM

## O=C(N1N=CCC1c1cc(F)cc(F)c1)C12CC(Cn3cc(-c4cnccn4)cn3)(C1)C2 (stereo not drawn) [Example 112, (5-(3,5-difluorophenyl)-4,5-dihydro-1H-pyrazol-1-yl)(3-((4-(pyrazin-2-yl)-1H-pyrazol-1-yl)methyl)-bicyclo[1.1.1]pentan-1-yl)-methanone]
RIPK1
  IC50: 73 nM
[1]; Homo sapiens, U-937, 22 h
  IC50: 285 nM

## CC1CC(c2cccc(F)c2)N(C(=O)C23CC(Cn4cc(C#N)cn4)(C2)C3)C1 (stereo not drawn) [Example 172, 1-((3-(2-(3-fluorophenyl)-4-methylpyrrolidine-1-carbonyl)bicyclo[1.1.1]-pentan-1-yl)methyl)-1H-pyrazole-4-carbonitrile]
RIPK1
  IC50: 4350 nM
[1]; Homo sapiens, U-937, 22 h
  IC50: > 10000 nM

## N#Cc1cnc(OCC23CC(C(=O)N4N=CC[C@H]4c4cc(F)cc(F)c4)(C2)C3)cn1 [Example 201, (S)-5-((3-(5-(3,5-difluorophenyl)-4,5-dihydro-1H-pyrazole-1-carbonyl)bicyclo[1.1.1]pentan-1-yl)methoxy)pyrazine-2-carbonitrile]
RIPK1; enantiomers separated by SFC, assay not named
  observed potency relative to the other enantiomer: more potent isomer
[1]; Homo sapiens, U-937, 22 h
  IC50: 7.1 nM
